Data reported in patent publication US10398751B2, “Pharmaceutical compositions of water soluble peptides with poor solubility in isotonic conditions and methods for their use” (STRONGBRIDGE IRELAND LIMITED, priority 2016, dated 2019).
Where “and” joins values, the source holds several entries; their conditions need not be identical. Equal values may be shown once. Where a name gives a salt, the structure may show the parent alone.

Assays:
[1] = Density, pH and surface tension of solutions (capillary method); format: physicochemical
Experimental: Tween 80 was used as a control surfactant for comparison. Densities were measured on 1 mL fixed volume samples. […] The effect of veldoreotide acetate on the pH of double distilled water (DDW) was the same at all veldoreotide acetate concentrations. The pH of DDW of 5.0 was reduced to pH 4.5. The effect of veldoreotide acetate on the density of DDW (starting density of DDW was 1.003 g/ml) was concentration dependent from 1.4 mg/ml to 21.5 mg/ml with density ranging from 0.986 to 0.998 g/ml respectively. However, at veldoreotide acetate concentrations of 45 and 102 mg/ml the density was increased above the starting density of DDW. […] The effect of veldoreotide acetate on the surface tension of DDW (starting surface tension was 64.9 dyne/cm) was consistent with veldoreotide acetate behaving as a peptide amphiphile (surfactant). The surface tension of DDW was reduced by veldoreotide acetate at maximum from 64.9 to 45 dyne/cm. In order to elucidate the meaning of this effect, Tween 80 was used as a reference surfactant. Other surfactants include Polexamer 188. The reduction of surface tension induced by Tween 80 was in the range of 40% (from 64.9 dyne/cm to about 39 dyne/cm), in comparison to veldoreotide acetate of 30% (from 64.9 dyne/cm to about 45 dyne/cm). Note that, under these experimental conditions; the effect of Tween 80 indicated a concentration-effect relationship. Whereas, the effect of veldoreotide acetate on the reduction of surface tension was at the same range for all concentrations tested.
The data of table 4 show the surface activity of highly concentrated COR005 acetate (200 mg/ml), with or without additives in WFI, which emulates the preparation conditions of the primary emulsion of the microspheres. The results of Test 1 and 2 (Table 4) show the effect of COR005 acetate on the surface tension of water. When COR005 acetate is dissolved in water the surface tension is reduced by about 36%, from 68.5 dyne/cm for the water alone to 44 dyne/cm for the solution of water with CR005 acetate at 200 mg/ml.

in vivo = assay: in vivo; set-up: species or system rats; settings: Sprague-Dawley, rat, sc
Experimental: The lactic acid vehicle for use in the formulations as shown in Table 7 below was prepared as follows: Formulations for injection into rats were prepared as summarized in Table 8. Subject rats (mean weight of about 370 grams per subject) were injected according to the above dosing schedule in groups of 5 rats per treatment. Baseline tail bleed samples were drawn from the rats at 2 days prior to dosing. […] Blood samples were approximately 300 uL of whole blood collected in commercial K3 EDTA-coated tubes. Subject rats were also observed for injection site reactions for up to 5-7 days post-dosing. Blood samples were kept on ice following collection until the time of centrifugation. Blood samples were processed within 60 minutes from blood collection. Samples were centrifuged at 3000 G for 15 minutes in a refrigerated centrifuge (5° C.). Plasma was withdrawn from the tubes after centrifugation and placed into new, appropriately labeled tubes and stored at −65° C. to −80° C. until transfer. […] Veldoreotide acetate standard was serially diluted with methanol:water (1:9) and added to blank rat plasma to generate calibration standards and QC samples. The calibration samples were stored at −70° C. Frozen samples were then thawed to room temperature. Blank plasma and reagent blank (water) were also prepared. For each 100 uL aliquot of sample, calibrator or QC sample, 25 uL (˜100 ng/mL) of internal standard (octreotide acetate) in methanol:water (1:9) and 600 uL of acetonitrile:formic acid (99:1) were added and the samples vortex mixed for 30 seconds. Samples were diluted by mixing 20 uL of plasma sample with 180 uL of blank plasma and aliquotted at 100 uL prior to addition of the internal standard and acetonitrile:formic acid solutions. Samples were then centrifuged for 10 minutes at 14,000 rpm at 8° C. 450 uL of the upper (organic) layer was then transferred to evaporation tubes and evaporated under nitrogen at about 50° C. Samples were then reconstituted in 200 uL of reconstitution solution (water:acetonitrile:formic acid at 70:30:0.2). Samples were centrifuged for 10 minutes at 4000 rpm at 8° C. 160 uL of each sample was withdrawn and placed in an autosampler vial with conic glass insert and analyzed via LC-MS/MS. Veldoreotide acetate plasma concentrations were then plotted and analyzed using standard pharmacokinetic techniques.

[2] = Pharmacokinetics of IR formulations in minipigs; format: in vivo; settings: minipig, plasma, sc; for AUC(0-t) / Tmax: minipigs
[3] = Emulsification of cottonseed oil and water for injection; format: physicochemical; settings: w/o ionic surfactant or hydrotrope
Experimental: Based on its amphiphilic properties, veldoreotide acetate was evaluated by means of emulsion formulation. […] Thus, veldoreotide acetate may be considered a w/o ionic surfactant or hydrotrope with a hydrophilic lipophilic balance (HLB) of 6.
The samples were mixed using 25G syringe and vortexed at room temperature.
Veldoreotide was formulated as a water in oil emulsion using 80% (wt %) cottonseed oil, 20% (wt %) water for injection (WFI) and 1% (wt %) veldoreotide acetate. Specifically, 10 mg of veldoreotide acetate was dissolved in 200 uL WFI in a 5 mL glass vial, 800 mg of cottonseed oil was added and the resulting mixture was stirred under magnetic stirring at room temperature for 15 minutes at 1000 rpm. The emulsion was then viewed under the light microscope and stored under refrigeration. The resulting emulsion was stable and found to be injectable via 27G needle.

[4] = 1.4 mg/ml in DDW pH 4.5, 25° C.
[5] = 102 mg/ml in DDW pH 4.5, 25° C.
[6] = 200 mg/ml + 50 mg/ml HPBCD in WFI (HPB:PEP 1:4), 5° C.
[7] = 200 mg/ml + 100 mg/ml HPBCD in WFI (HPB:PEP 1:2), 5° C.
[8] = 200 mg/ml in 5% Dextrose in WFI (DEX:PEP 1:8), 5° C.
[9] = 0.1 mg/kg, IR, SC 0.1 mg/Kg, DEX:PEP 5:1 saline
[10] = 0.1 mg/kg, IR, SC 0.1 mg/Kg, Lactic acid buffer
[11] = 0.4 mg/kg, IR, SC 0.4 mg/Kg, DEX:PEP 5:1 saline
[12] = 0.4 mg/kg, IR, SC 0.4 mg/Kg, HPB:PEP 15:1 saline
[13] = 0.4 mg/kg, IR, SC 0.4 mg/Kg, Lactic acid buffer

SMILES: C[C@@H](O)[C@@H]1NC(=O)[C@H](CCCCN)NC(=O)[C@@H](Cc2c[nH]c3ccccc23)NC(=O)[C@H](Cc2c[nH]c3ccccc23)NC(=O)[C@H](Cc2ccccc2)NC(=O)CCCNC(=O)CCCN(CC(N)=O)C(=O)[C@H](Cc2ccccc2)NC1=O [Veldoreotide Acetate, Cyclo(-γ-aminobutyryl-L-phenylalanyl-L-tryptophanyl-D-tryptophanyl-L-lysyl-L-threonyl-L-phenylalanyl-N-carbamoylmethyl-γ-aminobutyryl), acetate salt]
- % change in surface tension compared to baseline [1, 4]: −30%
- Density (g/ml) Weighted 1 ml [1, 4]: 0.986 g/mL
- Surface tension (dyne/cm) capillary method [1, 4]: 45.2 dyne/cm
- density of DDW solution ([1]; 1.4 mg/ml to 21.5 mg/ml, starting density of DDW 1.003 g/ml): 0.986 to 0.998 g/mL
- % change in surface tension compared to baseline ([1]; 12 mg/ml in DDW pH 4.5, 25° C.): −28%
- Density (g/ml) Weighted 1 ml ([1]; 12 mg/ml in DDW pH 4.5, 25° C.): 0.994 g/mL
- Surface tension (dyne/cm) capillary method ([1]; 12 mg/ml in DDW pH 4.5, 25° C.): 46.9 dyne/cm
- % change in surface tension compared to baseline ([1]; 21 mg/ml in DDW pH 4.5, 25° C.): −27%
- Density (g/ml) Weighted 1 ml ([1]; 21 mg/ml in DDW pH 4.5, 25° C.): 0.998 g/mL
- Surface tension (dyne/cm) capillary method ([1]; 21 mg/ml in DDW pH 4.5, 25° C.): 47.1 dyne/cm
- % change in surface tension compared to baseline ([1]; 45 mg/in DDW pH 4.5, 25° C.): −29%
- Density (g/ml) Weighted 1 ml ([1]; 45 mg/in DDW pH 4.5, 25° C.): 1.003 g/mL
- Surface tension (dyne/cm) capillary method ([1]; 45 mg/in DDW pH 4.5, 25° C.): 45.97 dyne/cm
- % change in surface tension compared to baseline [1, 5]: −24%
- Density (g/ml) Weighted 1 ml [1, 5]: 1.015 g/mL
- Surface tension (dyne/cm) capillary method [1, 5]: 49.3 dyne/cm
- % change in surface tension compared to baseline [1, 6]: −34%
- Density (g/ml) Weighted 1 ml [1, 6]: 1.04 g/mL
- Surface tension (dyne/cm) capillary method [1, 6]: 45 dyne/cm
- % change in surface tension compared to baseline [1, 7]: −26%
- Density (g/ml) Weighted 1 ml [1, 7]: 1.12 g/mL
- Surface tension (dyne/cm) capillary method ([1]; 200 mg/ml + 100 mg/ml HPBCD in WFI (HPB:PEP 1:2), 5° C., acetate salt): 51 dyne/cm
- Surface tension (dyne/cm) capillary method ([1]; 200 mg/ml + 100 mg/ml HPBCD in WFI (HPB:PEP 1:2), 5° C., listed as peptide, acetate salt): 52 dyne/cm and 51 dyne/cm
- % change in surface tension compared to baseline [1, 8]: −14%
- Density (g/ml) Weighted 1 ml [1, 8]: 1.03 g/mL
- Surface tension (dyne/cm) capillary method ([1]; 200 mg/ml in 5% Dextrose in WFI (DEX:PEP 1:8), 5° C., acetate salt): 54 dyne/cm
- Surface tension (dyne/cm) capillary method ([1]; 200 mg/ml in 5% Dextrose in WFI (DEX:PEP 1:8), 5° C., listed as peptide, acetate salt): 54 dyne/cm
- Density (g/ml) Weighted 1 ml ([1]; 200 mg/ml in WFI, 5° C.): 1.03 g/mL
- Surface tension (dyne/cm) capillary method ([1]; 200 mg/ml in WFI, 5° C.): 44 dyne/cm
- % change in surface tension compared to baseline ([1]; 200 mg/ml in WFI, 5° C., acetate salt): −36%
- % change in surface tension compared to baseline ([1]; 200 mg/ml in WFI, 5° C., listed as COR005 acetate, acetate salt): about 36%
- surface tension of DDW solution ([1]; DDW pH 5.0, 25° C., baseline 64.9 dyne/cm (text summary, concentration not specified), acetate salt): about 45 dyne/cm
- reduction of surface tension of water ([1]; DDW, 25° C., baseline 64.9 dyne/cm, acetate salt): 30%
- pH of DDW solution ([1]; all concentrations, DDW pH 5.0 before): 4.5
- Cmax (in vivo; 3 mg/kg, Rats Cmax (ng/ml)): 544 ng/mL
- bioavailability (in vivo; 3 mg/kg, pH 4, Rats BA (F %)): 83%
- Cmax (in vivo; 3 mg/kg, pH 4, Rats Cmax (ng/ml)): 345 ng/mL
- bioavailability (in vivo; […], Rats BA (F %)): 82%
- bioavailability (in vivo; pH 4, Rats BA (F %)): 70%
- Cmax (in vivo; pH 4, Rats Cmax (ng/ml)): 350 ng/mL
- Cmax ([2]; 0.1 mg/kg, IR, SC, 0.1 mg/Kg, DEX:PEP 5:1 saline): 53 ng/mL
- AUC(0-t) [2, 9]: 53 ng·h/mL
- Tmax [2, 9]: 60 min
- AUC(0-t) [2, 10]: 26 ng·h/mL
- Tmax [2, 10]: 30 min
- Cmax ([2]; 0.1 mg/kg, pH 4, IR, Lactic acid buffer pH 4): 29 ng/mL
- AUC(0-t) [2, 11]: 205 ng·h/mL
- Tmax [2, 11]: 30 min
- AUC(0-t) [2, 12]: 198 ng·h/mL
- Tmax [2, 12]: 15 min
- AUC(0-t) [2, 13]: 161 ng·h/mL
- Tmax [2, 13]: 60 min
- hydrophilic lipophilic balance (HLB) [3]: 6
